Experimental data taken from US5332734A, “Oxazinone derivative” (Japan Tobacco, Incorporated, priority 1991, dated 1994).

How the values were obtained:
[1] = target: T1, human sputum elastase (HSE) (Homo sapiens, UniProt P08246); experiment: HSE inhibitory activity; assay type: biochemical; conditions: HSE 10 nM, substrate 0.25 mM, pH 7.0
T1 construct: purchased Sigma Inc; host or cells: human sputum (by its name)
T1 sequence (P08246 30-247 limits assumed): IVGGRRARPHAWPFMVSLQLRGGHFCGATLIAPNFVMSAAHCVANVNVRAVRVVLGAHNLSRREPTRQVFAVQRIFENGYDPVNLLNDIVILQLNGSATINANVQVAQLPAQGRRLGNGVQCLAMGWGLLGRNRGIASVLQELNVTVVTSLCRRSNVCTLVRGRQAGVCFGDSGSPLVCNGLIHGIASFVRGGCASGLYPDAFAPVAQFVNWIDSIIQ
Protocol: (§1) Inhibotory activities of the oxadinone derivative of the present invention against human leukocyte elastase (HLE), human sputum elastase (HSE), human cathepsin G (HCG), bovine pancreatic α-chymotrypsin (CYT) and bovine pancreatic trypsin (TRY) were measured as follows:
(2) Measurement of HSE Inhibiting Activity
(§2) a) Enzyme Preparing Method Bought from Sigma Inc.
(§3) Employed was a measuring method similar to that described previously in conjunction with the measurement of the HLE inhibitory activity, except that used was a buffer solution of pH 7.0. The final concentrations of HSE and the synthetic substrate (MeOSuc-Ala-Ala-Pro-Phe-pNA; FUNAKOSHI) in the solution of the enzyme reaction were 10 nM and 0.25 mM, respectively.

[2] = system: neutrophil infiltration into carrageenin-induced air pouch inflammation; experiment: Suppressing neutrophil infiltration into carrageenin-induced air pouch inflammation; assay type: in vivo, SD series male rats; conditions: 17 μmol into air pouch, 5 hours; for Cell Infiltration Capability: control = 100
Protocol: Test: 3 Effect of the Invented Compound for Suppressing Neutrophil Infiltration into carrageenin-induced Air Pouch Inflammation
Groups of SD series male rats (5 five weeks old and each weighing 110 to 130 g) were used in this experiment, each group consisting of five rats. In the first step, an air bladder was formed on the back of the rat by hypodermic injection of 8 ml of air while anesthetizing the rat with either. Twenty-four hours later, 5 ml of a physiological saline containing 1% of carrageenin manufactured by Wako K.K. was injected into the air pouch. Promptly after the carrageenin injection, a solution prepared by dissolving the test material (compound of the present invention) in 200 μl of DMSO (dimethylsulfoxide) was administered to the air pouch on the back of the rat.
Five hours later, the rat was killed and the blood was released therefrom. Then, 5 ml of PBS containing 10 mM of EDTA (ethylenediamine tetraacetate) was injected into the air pouch. The exudate within the air bladder was washed and, then, recovered. A predetermined amount of the recovered exudate was measured by a colter counter so as to count the number of infiltrated cells.
The effect of the test material for suppressing the cell infiltration into the carrageenin induced inflammation was determined by the formula given below, in which the value obtained by subtracting the number of infiltrated cells in the experiment in which carrageenin was not administered from the number of infiltrated cells in the reference group in which a medicine was not administered was set at 100:
= 100 - (U - V)/(W - V) × 100
S: Cell infiltration capability in the case of containing the compound of the present invention;
T: Cell infiltration capability in the case of not containing the compound of the present invention;
U: The number of infiltrated cells in the case of administering the compound of the present invention and carrageenin;
V: The number of infiltrated cells in the case of not adding carrageenin; and
W: The number of infiltrated cells in the case of administering carrageenin only.

[3] = target: T2, bovine pancreatic trypsin (TRY) (Bos taurus, UniProt P00760); experiment: TRY inhibitory activity; assay type: biochemical; conditions: TRY 25 nM, substrate 1.0 mM, pH 7.5
T2 construct: purchased Sigma Inc; host or cells: bovine pancreas (by its name)
T2 sequence (P00760 24-246): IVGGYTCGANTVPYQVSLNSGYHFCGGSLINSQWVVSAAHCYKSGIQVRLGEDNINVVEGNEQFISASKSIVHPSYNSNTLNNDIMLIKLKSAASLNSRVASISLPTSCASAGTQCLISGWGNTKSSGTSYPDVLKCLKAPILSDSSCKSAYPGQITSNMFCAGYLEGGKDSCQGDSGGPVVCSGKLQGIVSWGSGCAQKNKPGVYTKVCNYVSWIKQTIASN
Protocol: as §1
(5) Measurement of TRY Inhibitory Activity
as §2
as §3, with “inhibiting” for “inhibitory”, “7.5.” for “7.0.”, “TRY” for “HSE”, “(Z-Arg-pNA;” for “(MeOSuc-Ala-Ala-Pro-Phe-pNA;”, “25” for “10”, “1.0” for “0.25”

Compound | IC50 [1] [nM] | Rate (%) of Suppressing Cell Infiltration [2] [%] | Cell Infiltration Capability [2] | IC50 [3] [nM]
Cc1cccc2nc([C@@H](NC(=O)OCC3c4ccccc4-c4ccccc43)C(C)C)oc(=O)c12 [Compound 1, 2-{1(S)-[(9-fluorenylmethoxycarbonyl)amino]-2-methylpropyl}-5-methyl-4H-3,1-benzoxazin-4-one] | 310 | 38 | 62 | > 6890
Cc1cccc2nc([C@H](CC(C)C)NC(=O)OCC3c4ccccc4-c4ccccc43)oc(=O)c12 [Compound 2, 2-{1(S)-[(9-fluorenylmethoxycarbonyl)amino]-3-methylbutyl}-5-methyl-4H-3,1-benzoxazin-4-one] | 300 | 24 | 76 | > 6680
